The numbers were not newly measured in US7468434B2, “Diazene-bridge crown ether lithium compounds and methods for their use” (The University of Hong Kong, priority 2004, dated 2008), which cites them from elsewhere.

The subject of the data set is retinal ganglion cells. The settings on record: ocular hypertensive model.

As for lithium chloride, the “prevention of degeneration of RGC” value was “could prevent degeneration of RGC”.
